Laboratory results from patent US20060127310A1, “Amplification of biotin-mediated targeting” (priority 2002, published 2006).

Assays:
[1] = test system: O157; experiment: Uptake of Rhodamine-HPMA polymers into tumour cell lines; type: cell-based; design: key: −: Uptake was determined on a relative scale; +/−: Uptake was determined on a relative scale; +: Uptake was determined on a relative scale; ++: Uptake was determined on a relative scale; +++: Uptake was determined on a relative scale; conditions: O157, Balb/C, Bcell Lymph; 5 hours at 37° C.
Description: (§1) Cells from various tumour cell lines were allowed to grow for 2 days on glass slides incubated in appropriate media at 37° C. in 5% CO2. […] Cells were incubated for a further 5 hours at 37° C. in 5% CO2. At this time the media was removed and uptake into the cells was assessed by fluorescent microscopy of internalization of the rhodamine fluorophore. Uptake was determined on a relative scale.

[2] = test system: P815 tumour cells; conditions: mice bearing P815 tumour; 5 mg/kg Rhodamine conjugated to HPMA intraperitoneally; six hours after injection; FIG. 1
Description: For tumour accumulation studies, various strains of mice bearing a variety of tumours were injected intraperitoneally with 5 mg/kg Rhodamine conjugated to the HPMA polymers. Six hours after injection, the mice were sacrificed, their tumours removed and cryo-embedded before cryostatic sectioning. The level of accumulation of the Rhodamine-HPMA was determined by fluorescent microscopy using a Zeiss microscope equiped with Axioplan software. […] Blue staining is BisBenzamide staining of cell nuclei.

[3] = test system: MMT060562; experiment: Uptake of Rhodamine-HPMA polymers into tumour cell lines; type: cell-based; conditions: MMT060562, Balb/C, Breast; 5 hours at 37° C.
Description: as §1

[4] = test system: LL-2; experiment: as above; type: cell-based; conditions: LL-2, C57/BI, Lung; 5 hours at 37° C.
Description: as §1

[5] = test system: JC; experiment: as above; type: cell-based; conditions: Balb/C, Breast, 5 hours at 37° C.
Description: as §1

[6] = test system: RENCA; experiment: as above; type: cell-based; conditions: Balb/C, Renal cell, 5 hours at 37° C.
Description: as §1

[7] = test system: Ovcar; experiment: as above; type: cell-based; conditions: Ovarian, 5 hours at 37° C.
Description: as §1

[8] = test system: P815; experiment: as above; type: cell-based; conditions: P815, DBA/2, Mastocytoma; 5 hours at 37° C.
Description: as §1

[9] = test system: Ov 2008; experiment: as above; type: cell-based; conditions: Ov 2008, Balb/C-Nu, Ovarian; 5 hours at 37° C.
Description: as §1

[10] = test system: M109; experiment: as above; type: cell-based; conditions: M109, Balb/C, Lung; 5 hours at 37° C.
Description: as §1

[11] = test system: HCT-116; experiment: as above; type: cell-based; conditions: HCT-116, Balb/C-Nu, Colon Carcin; 5 hours at 37° C.
Description: as §1

[12] = test system: L1210; experiment: as above; type: cell-based; conditions: L1210, DBA/2, Leukemia; 5 hours at 37° C.
Description: as §1

[13] = test system: L1210FR; experiment: as above; type: cell-based; conditions: DBA/2, Leukemia, 5 hours at 37° C.
Description: as §1

[14] = test system: ID8; experiment: as above; type: cell-based; conditions: ID8, C57/BI, Ovarian; 5 hours at 37° C.
Description: as §1

[15] = test system: 4T1; experiment: as above; type: cell-based; conditions: 4T1, Balb/C, Breast; 5 hours at 37° C.
Description: as §1

[16] = test system: BW5147; experiment: as above; type: cell-based; conditions: BW5147, AKR/J, Lymphoma; 5 hours at 37° C.
Description: as §1

[17] = test system: B16; experiment: as above; type: cell-based; conditions: B16, C57/BI, Melanoma; 5 hours at 37° C.
Description: as §1

[18] = test system: Colo-26; experiment: as above; type: cell-based; conditions: Colo-26, Balb/C, Colon Carcin; 5 hours at 37° C.
Description: as §1

Rhodamine-HPMA polymer
Uptake into the cells (internalization of the rhodamine fluorophore, fluorescent microscopy), relative scale [1]: +/− | Level of accumulation / polymer uptake by P815 tumour cells (fluorescent microscopy of cryostat sections) [2]: accumulation | Uptake into the cells (internalization of the rhodamine fluorophore, fluorescent microscopy), relative scale [3]: − | Uptake into the cells (internalization of the rhodamine fluorophore, fluorescent microscopy), relative scale [4]: − | Uptake into the cells (internalization of the rhodamine fluorophore, fluorescent microscopy), relative scale [5]: − | Uptake into the cells (internalization of the rhodamine fluorophore, fluorescent microscopy), relative scale [6]: − | Uptake into the cells (internalization of the rhodamine fluorophore, fluorescent microscopy), relative scale [7]: − | Uptake into the cells (internalization of the rhodamine fluorophore, fluorescent microscopy), relative scale [8]: − | Uptake into the cells (internalization of the rhodamine fluorophore, fluorescent microscopy), relative scale [9]: − | Uptake into the cells (internalization of the rhodamine fluorophore, fluorescent microscopy), relative scale [10]: − | Uptake into the cells (internalization of the rhodamine fluorophore, fluorescent microscopy), relative scale [11]: + | Uptake into the cells (internalization of the rhodamine fluorophore, fluorescent microscopy), relative scale [12]: − | Uptake into the cells (internalization of the rhodamine fluorophore, fluorescent microscopy), relative scale [13]: − | Uptake into the cells (internalization of the rhodamine fluorophore, fluorescent microscopy), relative scale [14]: − | Uptake into the cells (internalization of the rhodamine fluorophore, fluorescent microscopy), relative scale [15]: − | Uptake into the cells (internalization of the rhodamine fluorophore, fluorescent microscopy), relative scale [16]: +/− | Uptake into the cells (internalization of the rhodamine fluorophore, fluorescent microscopy), relative scale [17]: − | Uptake into the cells (internalization of the rhodamine fluorophore, fluorescent microscopy), relative scale [18]: −
